According to patent US8815857B2 (Boehringer Ingelheim International GmbH, priority 2011, dated 2014):
Values after ≈ are worked out from the molar mass of the structure shown.

What was measured:
[1] = target: T1, Recombinant human soluble guanylate cyclase (sGC), alpha 1 / beta 1 subunits, heme-free (Homo sapiens, UniProt Q02108+Q02153); assay: Molecular assay: cGMP formation by heme-free recombinant sGC (CisBio cGMP detection kit); assay type: biochemical; details: 300 pM heme-free sGC, 37° C., 60 min, cGMP readout; read-out: EC50 nM, Activity of Compounds in Molecular Assay
T1 construct: histidine tag (C); made in house; host or cells: Sf9 insect cells (baculovirus coinfection)
T1 sequence (Q02108 1-690 partner): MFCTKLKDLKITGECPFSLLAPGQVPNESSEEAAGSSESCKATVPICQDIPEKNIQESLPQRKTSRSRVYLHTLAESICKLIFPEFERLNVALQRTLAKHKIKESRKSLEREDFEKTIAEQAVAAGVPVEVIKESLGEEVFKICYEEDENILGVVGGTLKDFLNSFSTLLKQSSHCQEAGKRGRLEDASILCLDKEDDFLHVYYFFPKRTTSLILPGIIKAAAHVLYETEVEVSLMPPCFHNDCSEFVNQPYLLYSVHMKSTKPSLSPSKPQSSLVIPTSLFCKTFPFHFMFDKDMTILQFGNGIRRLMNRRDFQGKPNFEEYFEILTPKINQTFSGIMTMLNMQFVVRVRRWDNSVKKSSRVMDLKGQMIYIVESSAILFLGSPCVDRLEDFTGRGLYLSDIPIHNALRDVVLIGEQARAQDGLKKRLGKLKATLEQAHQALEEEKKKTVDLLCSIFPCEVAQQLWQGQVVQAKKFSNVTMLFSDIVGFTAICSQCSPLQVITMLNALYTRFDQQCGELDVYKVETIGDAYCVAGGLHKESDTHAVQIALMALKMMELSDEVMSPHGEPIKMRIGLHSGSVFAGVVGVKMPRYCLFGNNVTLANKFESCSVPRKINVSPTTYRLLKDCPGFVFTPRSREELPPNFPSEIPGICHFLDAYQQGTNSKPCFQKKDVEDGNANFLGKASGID
T1 sequence (Q02153 1-619): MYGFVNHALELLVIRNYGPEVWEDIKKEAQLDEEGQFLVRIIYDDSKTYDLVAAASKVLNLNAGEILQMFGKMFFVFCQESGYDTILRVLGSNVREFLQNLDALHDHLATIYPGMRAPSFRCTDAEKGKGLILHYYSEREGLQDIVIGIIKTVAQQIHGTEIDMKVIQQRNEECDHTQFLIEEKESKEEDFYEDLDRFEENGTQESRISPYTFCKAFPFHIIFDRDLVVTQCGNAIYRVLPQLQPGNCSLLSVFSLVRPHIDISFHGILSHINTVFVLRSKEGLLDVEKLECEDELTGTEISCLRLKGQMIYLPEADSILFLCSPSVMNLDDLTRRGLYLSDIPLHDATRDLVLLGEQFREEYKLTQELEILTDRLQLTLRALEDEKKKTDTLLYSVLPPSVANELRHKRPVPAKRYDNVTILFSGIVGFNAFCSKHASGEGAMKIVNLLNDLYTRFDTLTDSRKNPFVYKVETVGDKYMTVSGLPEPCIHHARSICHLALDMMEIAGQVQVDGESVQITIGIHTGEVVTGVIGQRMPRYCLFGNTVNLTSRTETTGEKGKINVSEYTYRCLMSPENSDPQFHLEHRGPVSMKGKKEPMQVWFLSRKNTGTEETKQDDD
Outline: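 Heme-free His-tagged sGC (Sf9-expressed, Tween 20-treated lysate) at 300 pM incubated with compounds (1% DMSO) for 60 min at 37° C in MOPS pH 6.8 with 50 nM GTP, IBMX, TCEP. cGMP quantified by HTRF against calibration curve; EC50 from combined undiluted/diluted values.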

[2] = Assessment of solubility: HT solubility in pION buffer, UV spectrophotometry; details: 16-19 h incubation, 1.0% DMSO; for solubility: pION system solution buffer, kinetic from dmso stock
Experimental: Solubility is measured by the following method.
DMSO stock samples at 10 mM concentration are prepared. […] The samples are pierced and 100 ul of thawed samples are transferred into the PCR plate for analysis. Each sample is run in duplicate at each pH (pH 4.5 and 7.4). Up to 95 samples can be run in replicate at 2 pH's+1 DMSO (blank).
Preparation of pH 4.5 and 7.4 Buffers:
• pH 4.5 buffer:—To 12.5 of system solution (pION)qs to 500 mL of distilled water (pH 2.85-2.90); adjust the pH to pH 4.5 with 0.5 N NaOH. • pH 7.4 buffer: To 12.5 of system solution (pION)qs to 500 mL of distilled water (pH 2.85-2.90); adjust the pH to pH 7.4 with 0.5N NaOH. […] Procedure: Preparation of UV Blank Plate:
75 ul of buffer (pH 7.4 or pH 4.5) is added to UV plate followed by addition of 70 ul of N-propanol. The solution is mixed and the blank spectrum is read using spectrophotometer.
Preparation of Reference UV Plate:
10 ul of each stock sample (including DMSO control) is added to 190 ul of N-propanol to prepare the reference stock plate. Reference stock samples are mixed and 5 ul of each stock sample is added to UV blank plate after it is read spectrophotometrically. The reference stock sample is mixed with blank solution in UV plate and the reference spectrum is read using UV spectrophotometer.
Preparation of Sample for Incubation:
Solubility at pH 7.4:6 ul of each stock sample (including DMSO control) is added to the storage plate containing 600 ul of pH 7.4 buffer, mixed and incubated for 16-19 h. The plate is sealed well during the incubation process. The DMSO content in the sample is 1.0%. The concentration in deep well plates is 100 uM
6 ul of each stock sample (including DMSO control) is added to the deep well plate containing 600 ul of pH 4.5 buffer, mixed and incubated for 16-19 h. The plate is sealed well during the incubation process. The DMSO content in the sample is 1.0%. The concentration in deep well plates is 100 uM
Preparation of Sample UV Plate:
At the end of the incubation period, 100 uL of sample from the storage plate is vacuum filtered using a filter plate. This step wets the filters and the filtrate is discarded. Another 200 ul of the sample from the deep well plate is vacuum filtered using the same filter block but a clean filter plate. 75 ul of the filtrate from the filter plate is transferred to a UV sample plate. 75 ul of N-propanol is added to this UV plate. The solution is mixed and the spectrum is read using the UV spectrophotometer.
The spectra collected for blank, reference and sample from 250-498 nm is analyzed using pION software. If the sample precipitates out, the solubility is reported as XX μg/ml.

[3] = pH 4.5, pH 4.5, aqueous buffer, Solubility (pH 4.5), pH 4.5 buffer
[4] = pH 7.4, pH 7.4, aqueous buffer, Solubility (pH 7.4), pH 7.4 buffer

SMILES | EC50 [1] [nM] | solubility [2, 3] [µg/mL] | solubility [2, 4] [µg/mL] | Solubility (pH 4.5) ([2]; pH 4.5 buffer) [μg/mL]
Cc1cc(C(=O)N2CCCCC2)ccc1COc1ccc(Cl)cc1-c1csc(N2CCC(C(=O)O)CC2C)n1 (stereo not drawn) [Compound 102] | 30 | 0.25 (≈ 0.44 µM) | 26 (≈ 45.8 µM) | –
Cc1cc(C(=O)N2CCCCC2)ccc1COc1ccc(Cl)cc1-c1csc(N2CCC(C(=O)O)C(C)C2)n1 (stereo not drawn) [Compound 103] | 17 | 0.3 (≈ 0.528 µM) | 35 (≈ 61.6 µM) | –
Cc1ccc(OCc2ccc(CN3CCS(=O)(=O)CC3)cc2C)c(-c2csc(N3CCC(C(=O)O)CC3)n2)c1 [Compound 104] | 19 | 0.35 (≈ 0.614 µM) | > 68 | –
Cc1cc(CN2CCS(=O)(=O)CC2)ccc1COc1c(C)cccc1-c1csc(N2CCC(C(=O)O)CC2)n1 [Compound 105] | 37 | 8.9 (≈ 15.6 µM) | > 56 | –
Cc1ccc(OCc2ccc(C(=O)N3CCC(F)(F)CC3)cc2C)c(-c2csc(N3CCC(C(=O)O)CC3)n2)c1 [Compound 106] | 100 | 0.3 (≈ 0.527 µM) | > 56 | –
Cc1cc(CN2CCS(=O)(=O)CC2)ccc1COc1ccccc1-c1csc(N2CCC(C(=O)O)C(C)C2)n1 (stereo not drawn) [Compound 107] | 71 | 0.65 (≈ 1.14 µM) | > 56 | –
Cc1cc(CN2CCS(=O)(=O)CC2)ccc1COc1ccccc1-c1csc(N2CCC(C(=O)O)CC2C)n1 (stereo not drawn) [Compound 108] | 100 | 2.3 (≈ 4.04 µM) | > 56 | –
Cc1cc(C(=O)N2CCCCC2)ccc1COc1ccc(C#N)cc1-c1csc(N2C3CCC2CC(C(=O)O)C3)n1 (stereo not drawn) [Compound 109] | 1500 | 0.65 (≈ 1.14 µM) | > 56 | –
Cc1cc(CN2CCS(=O)(=O)CC2)ccc1COc1ccc(F)cc1-c1csc(N2CC3C(C2)C3C(=O)O)n1 (stereo not drawn) [Compound 110] | 1200 | 0.35 (≈ 0.612 µM) | > 57 | –
Cc1cc(CN2CCS(=O)(=O)CC2)ccc1COc1ccc(F)cc1-c1csc(N2CCC(C(=O)O)CC2)n1 [Compound 111] | 74 | 0.25 (≈ 0.436 µM) | > 57 | –
Cc1ccc(OCc2ccc(CN(C)CC3CCOCC3)cc2C#N)c(-c2csc(N3CCC(C(=O)O)CC3)n2)c1 [Compound 112] | 400 | > 68 | > 68 | –
Cc1cc(CN2CCOCC2)ccc1COc1c(-c2csc(N3CCC(C(=O)O)CC3)n2)cccc1C(F)(F)F [Compound 113] | 56 | > 57 | > 57 | –
Cc1cc(CN2CCOCC2)ccc1COc1ccccc1-c1csc(N2CCC(C(=O)O)CC2C(F)(F)F)n1 (stereo not drawn) [Compound 114] | 470 | 30 (≈ 52.1 µM) | > 57 | –
CNC(=O)C1CCN(Cc2ccc(COc3c(C)cccc3-c3csc(N4CCC(C(=O)O)CC4)n3)c(C)c2)CC1 [Compound 115] | 2700 | > 57 | > 57 | –
Cc1cc(C(=O)N2CCCCC2)ccc1COc1ccc(Cl)cc1-c1csc(N2C3CCC2CC(C(=O)O)C3)n1 (stereo not drawn) [Compound 117] | 30 | 0.25 (≈ 0.431 µM) | > 57 | –
Cc1cc(C(=O)N2CCCCC2)ccc1COc1ccc(Cl)cc1-c1csc(N2CC3CCC(C2)C3C(=O)O)n1 (stereo not drawn) [Compound 118] | 85 | 0.3 (≈ 0.517 µM) | 21 (≈ 36.2 µM) | –
Cc1ccc(OCc2ccc(CN3CCS(=O)(=O)CC3)cc2C#N)c(-c2csc(N3CCC(C(=O)O)CC3)n2)c1 [Compound 119] | 39 | 1.6 (≈ 2.76 µM) | > 69 | –
Cc1cc(CN2CCS(=O)(=O)CC2)ccc1COc1ccccc1-c1csc(N2CC3CCC(C2)C3C(=O)O)n1 (stereo not drawn) [Compound 121] | 280 | 3.3 (≈ 5.67 µM) | > 58 | –

SMILES | EC50 [1] [nM] | solubility [2, 3] [µg/mL] | solubility [2, 4] [µg/mL] | Solubility (pH 4.5) ([2]; pH 4.5 buffer) [μg/mL]
Cc1ccc(OCc2ccc(C(=O)N3CCS(=O)(=O)CC3)cc2C)c(-c2csc(N3CCC(C(=O)O)CC3)n2)c1 [Compound 122] | 81 | 4.3 (≈ 7.37 µM) | > 58 | –
Cc1cc(CN(C)C2CCS(=O)(=O)C2)ccc1COc1c(C)cccc1-c1csc(N2CCC(C(=O)O)CC2)n1 (stereo not drawn) [Compound 123] | 17 | 31 (≈ 53.1 µM) | > 58 | –
Cc1ccc(OCc2ccc(C(=O)N(C)CC3CCCCC3)cc2C#N)c(-c2csc(N3CCC(C(=O)O)CC3)n2)c1 [Compound 125] | 74 | – | 14 (≈ 23.9 µM) | 0.1
Cc1cc(C(=O)N2CCCCC2)ccc1COc1c(-c2csc(N3CCC(C(=O)O)CC3)n2)cccc1C(F)(F)F [Compound 126] | 46 | 0.15 (≈ 0.255 µM) | > 58 | –
Cc1cc(C(=O)N2CCCCC2)ccc1COc1ccccc1-c1csc(N2CCC(C(=O)O)C(C(F)(F)F)C2)n1 (stereo not drawn) [Compound 127] | 400 | 0.2 (≈ 0.34 µM) | > 58 | –
Cc1cc(CN2CCS(=O)(=O)CC2)ccc1COc1ccc(F)cc1-c1csc(N2CCC(C(=O)O)C(C)C2)n1 (stereo not drawn) [Compound 129] | 89 | 0.15 (≈ 0.255 µM) | > 58 | –
Cc1cc(C(=O)N2CCCCC2)ccc1COc1ccccc1-c1csc(N2CCC(C(=O)O)CC2C(F)(F)F)n1 (stereo not drawn) [Compound 130] | 30 | 0.3 (≈ 0.51 µM) | > 58 | –
Cc1cc(CN2CCS(=O)(=O)CC2)ccc1COc1ccc(F)cc1-c1csc(N2CCC(C(=O)O)CC2C)n1 (stereo not drawn) [Compound 131] | 88 | 0.15 (≈ 0.255 µM) | > 58 | –
Cc1ccc(OCc2ccc(CN3CCOCC3)cc2C)c(-c2csc(N3CCC(C(=O)O)CC3C(F)(F)F)n2)c1 (stereo not drawn) [Compound 132] | 160 | 15 (≈ 25.4 µM) | > 58 | –
Cc1cc(CN2CCS(=O)(=O)CC2)ccc1COc1ccc(Cl)cc1-c1csc(N2CCC(C(=O)O)CC2)n1 [Compound 133] | 45 | 0.2 (≈ 0.339 µM) | > 58 | –
Cc1cc(CN2CCC(C(=O)N(C)C)CC2)ccc1COc1c(C)cccc1-c1csc(N2CCC(C(=O)O)CC2)n1 [Compound 134] | 1800 | > 68 | > 68 | –
Cc1cc(CN2CCS(=O)(=O)CC2)ccc1COc1ccc(C#N)cc1-c1csc(N2CCC(C(=O)O)C(C)C2)n1 (stereo not drawn) [Compound 135] | 2700 | 0.45 (≈ 0.757 µM) | > 59 | –
Cc1ccc(OCc2ccc(CN3CCS(=O)(=O)CC3)cc2C)c(-c2csc(N3CC4CCC(C3)C4C(=O)O)n2)c1 (stereo not drawn) [Compound 136] | 6.1 | 0.45 (≈ 0.755 µM) | > 59 | –
Cc1ccc(OCc2ccc(CN3CCS(=O)(=O)CC3)cc2C)c(-c2csc(N3C4CCC3CC(C(=O)O)C4)n2)c1 (stereo not drawn) [Compound 137] | 64 | 0.95 (≈ 1.59 µM) | > 59 | –
Cc1ccc(OCc2ccc(CN3CCC(S(C)(=O)=O)CC3)cc2C)c(-c2csc(N3CCC(C(=O)O)CC3)n2)c1 [Compound 138] | 180 | > 70 | > 70 | –
Cc1cc(CN2CCS(=O)(=O)CC2)ccc1COc1ccc(F)cc1-c1csc(N2C3CCC2CC(C(=O)O)C3)n1 (stereo not drawn) [Compound 139] | 380 | 0.6 (≈ 1 µM) | > 59 | –
N#Cc1cc(CN2CCS(=O)(=O)CC2)ccc1COc1c(Cl)cccc1-c1csc(N2CCC(C(=O)O)CC2)n1 [Compound 140] | 79 | 1.8 (≈ 2.99 µM) | > 60 | –
Cc1ccc(OCc2ccc(C(=O)N3CCCCC3)cc2C)c(-c2csc(N3CCC(C(=O)O)CC3C(F)(F)F)n2)c1 (stereo not drawn) [Compound 141] | 3.9 | 0.2 (≈ 0.332 µM) | > 60 | –
